Assay [1] has as its system PAO1 mutant MIN1_RW01_1, pmrB(Y98N). The assay is described as follows: MIC, E-test on MHA. Format: cell-based. The settings on record: Pseudomonas aeruginosa, PAO1, read-out: MIC, E-test.
The test system of assay [2] is PAO1 mutant MIN16_3, nfxB(nt79∆14), pilB(N349K). The assay is described as follows: MIC, E-test on MHA. The settings on record: Pseudomonas aeruginosa, PAO1, read-out: MIC, E-test. Type of assay: cell-based.
The subject of assay [3] is PAO1 mutant MIN1_RW01_3, pmrB(V215L). The assay is described as follows: MIC, E-test on MHA. The conditions noted are these: Pseudomonas aeruginosa, PAO1, read-out: MIC, E-test. Type of assay: cell-based.
Assay [4] deals with P. aeruginosa PAO1, WT. The assay is described as follows: MIC, E-test on MHA. Type of assay: cell-based. The conditions noted are these: Pseudomonas aeruginosa, PAO1, read-out: MIC, E-test.
For assay [5], the system named is PAO1 mutant MIN8_4, pilZ(nt18InsT). As to the kind of experiment: MIC, E-test on MHA. The settings on record: Pseudomonas aeruginosa, PAO1, read-out: MIC, E-test. Type of assay: cell-based.
The subject of assay [6] is PAO1 mutant MIN8_1, nalD(R3C), pilM(Q62X). The assay is described as follows: MIC, E-test on MHA. Type of assay: cell-based. The settings on record: Pseudomonas aeruginosa, PAO1, read-out: MIC, E-test.
Assay [7] relates to PAO1 mutant MIN32_1, mexR(R63H), pilB(N349K), PA0646(V316G). The assay is described as follows: MIC, E-test on MHA. Format: cell-based. The conditions noted are these: Pseudomonas aeruginosa, PAO1, read-out: MIC, E-test.
For assay [8], the system named is PAO1 mutant MIN16_2, nalC(aa9∆4), pilQ(nt46∆1). As to the kind of experiment: MIC, E-test on MHA. The conditions noted are these: Pseudomonas aeruginosa, PAO1, read-out: MIC, E-test. Type of assay: cell-based.
Assay [9] relates to PAO1 mutant MIN4_RW01_1, pmrB(R429H). The assay is described as follows: MIC, E-test on MHA. The conditions noted are these: Pseudomonas aeruginosa, PAO1, read-out: MIC, E-test. Type of assay: cell-based.
Assay [10] has as its system PAO1 mutant MIN2_RW01_2, pmrB(M292T). As to the kind of experiment: MIC, E-test on MHA. The settings on record: Pseudomonas aeruginosa, PAO1, read-out: MIC, E-test. Type of assay: cell-based.
The test system of assay [11] is PAO1 mutant MIN2_RW01_4, pmrB(M292T). As to the kind of experiment: MIC, E-test on MHA. Format: cell-based. The conditions noted are these: Pseudomonas aeruginosa, PAO1, read-out: MIC, E-test.
Assay [12] relates to PAO1 mutant MIN16_4, nalC(T50P), pilM(Q62X). The assay is described as follows: MIC, E-test on MHA. Format: cell-based. The conditions noted are these: Pseudomonas aeruginosa, PAO1, read-out: MIC, E-test.
Assay [13] concerns PAO1 mutant MIN1_RW01_2, mexR(G58E), pilB(G326D), hutC(Y181X). The assay is described as follows: MIC, E-test on MHA. Type of assay: cell-based. The settings on record: Pseudomonas aeruginosa, PAO1, read-out: MIC, E-test.
For assay [14], the system named is PAO1 mutant MIN16_3, nfxB(nt79∆14), pilB(N349K). As to the kind of experiment: MIC, MHB microdilution. The conditions noted are these: Pseudomonas aeruginosa, PAO1, read-out: MIC, MHB microdilution. A general note: Broth dilution looks for growth in wells or tubes with falling amounts of substance.
The test system of assay [15] is P. aeruginosa PAO1. The assay is described as follows: One-step mutant generation and resistant population analysis on MHA. Type of assay: cell-based, Pseudomonas aeruginosa. The protocol: (§1) Selection of resistant mutants was performed for minocycline with and without RW01 in three independent replicates for wild-type P. aeruginosa reference strain PAO1. Tubes containing Mueller-Hinton broth (MHB) were inoculated and incubated for 24 h at 37°C. Afterward, 1/100 dilution of each tube was incubated at 37°C in MHB to late-exponential growth phase, measured by spectrophotometry at OD600. […] A control plate without antibiotic was included as inoculum control. After overnight incubation, colony counting of each treatment was performed to analyze the generation of resistant population. The mutant prevention concentration (MPC) was defined as the lowest concentration of antibiotic yielding no growth of resistant mutants. Selected mutants were checked for susceptibility profiles by using a Sensititre custom plate (Thermo Fisher Scientific, Massachusetts, USA) for Gram-negative bacteria, following the manufacturer’s instructions.

Assay [16] concerns PAO1 mutant MIN1_RW01_3, pmrB(V215L). As to the kind of experiment: MIC, MHB microdilution. The settings on record: Pseudomonas aeruginosa, PAO1, read-out: MIC, MHB microdilution.
The subject of assay [17] is P. aeruginosa PAOUW. As to the kind of experiment: Checkerboard assay with RW01. Type of assay: cell-based, Pseudomonas aeruginosa. The conditions noted are these: for average FIC Index: antibiotic combined with RW01, checkerboard, AST broth, 37°C, 18–22 h, three biological replicates. Here is the method:
(§2) To assess the in vitro interaction between RW01 and tetracyclines, the checkerboard assay method was performed in 96-well microtiter plates using strains PAO1 and PAOUW. In the same way as for MIC determination, BD Phoenix AST Broth (Becton Dickinson) medium was used for bacterial growth. Minocycline and tigecycline combined with RW01 were the agents selected for the assay. A column and a row of wells in the checkerboard plate were reserved for controls of each antimicrobial individually to ensure the proper concentration of the agents. Positive and negative controls were also included. Wells in rows contained serial dilutions of RW01 starting from 512 mg/L, while those in columns varied in concentrations of the antibiotic. Inoculum at ~5 × 10⁵ CFU/mL, antibiotic, RW01, and AST broth were added to a final volume of 200 µL. Plates were incubated at 37°C for 18–22 h under aerobic conditions. Three biological replicates were obtained. Fractional inhibitory concentration index (FICI) is defined as the summatory of fractional inhibitory concentrations (FICs) from compound A: RW01, and compound B: minocycline/tigecycline. FICs were calculated as:
(§3) FIC of RW01 (FICRW01)=MIC of RW01 in combination/MIC of RW01 alone,FIC of antibiotic (FICATB)=MIC of ATB in combination/MIC of ATB alone,FICI=FICRW01 +FICATB.
(§4) FICI was interpreted as follows: synergistic effect if FICI is ≤0.5; additive effect if 0.5 < FICI ≤ 1.0; indifferent effect if 1.0 < FICI ≤ 2.0; and finally, antagonistic effect if FICI is >2.0. The average FICI considering the antibiotic MIC (no growth in any of the replicates) at different concentrations of RW01 was calculated ([28]).

The subject of assay [18] is P. aeruginosa PAO1. As to the kind of experiment: Checkerboard assay with RW01. The conditions noted are these: for average FIC Index: antibiotic combined with RW01, checkerboard, AST broth, 37°C, 18–22 h, three biological replicates. Type of assay: cell-based, Pseudomonas aeruginosa. Here is the method: as §2, §3, §4
Assay [19] concerns PAO1 mutant MIN16_2, nalC(aa9∆4), pilQ(nt46∆1). The assay is described as follows: MIC, MHB microdilution. The conditions noted are these: Pseudomonas aeruginosa, PAO1, read-out: MIC, MHB microdilution.
For assay [20], the system named is PAO1 one-step mutants. The assay is described as follows: MIC, MHB microdilution, mutants summarised as a group. Format: cell-based, Pseudomonas aeruginosa. Here is the method:
MIC for RW01 was also tested.
as §1

Assay [21] has as its system PAO1 mutant MIN1_RW01_2, mexR(G58E), pilB(G326D), hutC(Y181X). As to the kind of experiment: MIC, MHB microdilution. The conditions noted are these: Pseudomonas aeruginosa, PAO1, read-out: MIC, MHB microdilution.
Assay [22] relates to PAO1 mutant MIN8_4, pilZ(nt18InsT). As to the kind of experiment: MIC, MHB microdilution. The conditions noted are these: Pseudomonas aeruginosa, PAO1, read-out: MIC, MHB microdilution.
Assay [23] has as its system PAO1 mutant MIN4_RW01_3, pmrB(M292T). The assay is described as follows: MIC, MHB microdilution. The conditions noted are these: Pseudomonas aeruginosa, PAO1, read-out: MIC, MHB microdilution.
For assay [24], the system named is PAO1 mutant MIN8_3, pilZ(nt18InsT). The assay is described as follows: MIC, MHB microdilution. The conditions noted are these: Pseudomonas aeruginosa, PAO1, read-out: MIC, MHB microdilution.

The record followed here is PMC11823630, “In vitro potentiation of tetracyclines in Pseudomonas aeruginosa by RW01, a new cyclic peptide” (Antimicrobial Agents and Chemotherapy, 2024).

As a reminder, the MIC is the smallest concentration in the dilution series that meets the test's criterion for growth inhibition.

Each structure is given as a SMILES string. Converted amounts (≈) assume the structure as drawn. Where only a bound is given, the exact number is not on record here.

On to `C[C@H]1c2cccc(O)c2C(=O)C2=C(O)[C@]3(O)C(=O)C(C(N)=O)=C(O)[C@@H](N(C)C)[C@@H]3[C@@H](O)[C@@H]21` [Doxycycline, doxycycline], for which the MIC in assay [1] turned out to be 96 µg/mL (≈ 216 µM); in assay [2], 192 µg/mL (≈ 432 µM); in [3], 64 µg/mL (≈ 144 µM); in [4] it was 32 µg/mL (≈ 72 µM); in [5], 256 µg/mL (≈ 576 µM); in [6], 256 µg/mL (≈ 576 µM). The MIC in assay [7] is 256 µg/mL (≈ 576 µM); in [8] it was 128 µg/mL (≈ 288 µM); in assay [9], 256 µg/mL (≈ 576 µM); in assay [10] it was 128 µg/mL (≈ 288 µM); in assay [11], 64 µg/mL (≈ 144 µM); in assay [12] it was 128 µg/mL (≈ 288 µM). Moreover, in [13], the minimal inhibitory concentration (MIC) came out at 256 µg/mL (≈ 576 µM).
Turning to `CN(C)c1ccc(O)c2c1C[C@H]1C[C@H]3[C@H](N(C)C)C(O)=C(C(N)=O)C(=O)[C@@]3(O)C(O)=C1C2=O` [Minocycline, minocycline], the minimum inhibitory concentration (MIC) is 16 to 32 µg/mL (≈ 35 to 69.9 µM) in assay [14]; 4 to 8 µg/mL (≈ 8.74 to 17.5 µM) in [15] (Pseudomonas aeruginosa, PAO1, read-out: MIC (population studies)); 16 µg/mL (≈ 35 µM) in [16]; 16 µg/mL (≈ 35 µM) in assay [19]; no more than 64 µg/mL in assay [20] (Pseudomonas aeruginosa, PAO1, read-out: highest MIC among the mutants); 32 to 64 µg/mL (≈ 69.9 to 140 µM) in [21]. Also, the minimum inhibitory concentration (MIC) in [22] is 16 µg/mL (≈ 35 µM); in assay [23] it was 64 µg/mL (≈ 140 µM); in assay [24] it was 16 µg/mL (≈ 35 µM). For the same molecule, the “mutant prevention concentration (MPC)” value in [15] (PAO1, minocycline alone, three independent replicates) lay within 32 to 64 mg/L. For the same molecule, the “mutant prevention concentration (MPC) with RW01” value in [15] (PAO1, minocycline co-administered with RW01 100 mg/L) is reported as 8 mg/L. For the same molecule, the “interaction with RW01 (checkerboard)” value in assay [17] is listed as “synergistic”; in assay [18], “additive”. Moreover, the “average FIC Index” value in assay [17] was determined as 0.406; in [18], 0.535. Further, the “MIC range over the tested mutants” value in [20] (agent alone, both mutant types, for minocycline the typical range) was 16 to 32 µg/mL. Further, in assay [20] (mutants selected by minocycline + RW01), the “MIC of the minocycline-RW01 combination” value lay in the range of 4.0 to 8.0 µg/mL.
With `CN(C)c1cc(NC(=O)CNC(C)(C)C)c(O)c2c1C[C@H]1C[C@H]3[C@H](N(C)C)C(O)=C(C(N)=O)C(=O)[C@@]3(O)C(O)=C1C2=O` [Tigecycline, tigecycline], the minimum inhibitory concentration (MIC) in [1] is 24 µg/mL (≈ 41 µM); in assay [2] it was 48 µg/mL (≈ 82 µM); in assay [3], 16 µg/mL (≈ 27.3 µM); in assay [4], 6 to 8 µg/mL (≈ 10.2 to 13.7 µM); in assay [5], 32 µg/mL (≈ 54.6 µM); in [6], 32 µg/mL (≈ 54.6 µM). Moreover, the MIC amounted to 24 µg/mL (≈ 41 µM) in [7]; 32 µg/mL (≈ 54.6 µM) in assay [8]; 16 µg/mL (≈ 27.3 µM) in assay [9]; 16 µg/mL (≈ 27.3 µM) in assay [10]; 16 µg/mL (≈ 27.3 µM) in [11]; 16 µg/mL (≈ 27.3 µM) in assay [12]. For the same molecule, the minimum inhibitory concentration (MIC) in assay [13] was found to be 32 µg/mL (≈ 54.6 µM). The “interaction with RW01 (checkerboard)” value is recorded as “synergistic” in assay [17] and “additive” in [18]. The “average FIC Index” value came to 0.446 in assay [17] and 0.677 in assay [18].
